Where two headings read alike, the source gives them in different places. No end group written: not given here.
Tests used:
osmY-lux fusion = assay: Stress-induced response assay, induction of osmY-lux fusion; type: cell-based; conditions: Table 4; stress sensed osmotic shock
Protocol: (§1) Stress-induced response and growth inhibition assays were carried out on samples of four of the β-peptide and compared to known polycationic peptides.
(§2) Polymyxin B was tested both rich, LB, medium and defined, M9, medium. The other natural peptides were tested in LB medium.
(§3) The β-peptides were tested in M9 medium. * In LB medium (data from Oh et al. Biochem. Biophys. Acta. 2000,1463: 43-54)
(§4) However, similar to the magainins, no induction of the micF-lux fusion was observed. Also, the minimum inhibitory concentrations (MIC's) were determined to be higher than those reported in the published manuscript.
(§5) Samples of these β-peptides 1 and 2 were evaluated in the stress-induced response assays.
(§6) The biolumenescence data result from test carried out according to U.S. Pat. No. 5,683,868, Highly Sensitive Method For Detecting Environmental Insults, issued Nov. 4, 1997 to LaRossa et al., the entire contents of the disclosure of are hereby incorporated by reference, The tests described in this patent permit antibacterial properties of peptides or any other materials to be assessed. […] Along these lines, FIG. 5 illustrates a relationship between relative light units and minutes of exposure of bacteria to the various materials in the legend. P×B represents polymyxin, a known antibacterial material. In the graph, a decrease in RULs corresponds to a decrease in bacteria. […]

micF-lux fusion = assay: Stress-induced response assay, induction of micF-lux fusion; type: cell-based; conditions: Table 4; regulatory gene Rob
Protocol: as §1, §2, §3, §4, §5, §6

[1] = Hemolysis assay, 50% lysis of RBC's; type: cell-based, human; conditions: 0.25% suspension of human erythrocytes (RBCs)
Protocol: (§7) The biological activities of these peptides were measured using human erythrocytes and E. coli as models for mammalian and bacterial cells, respectively. Hemolysis was monitored in 10 mM Tris, 150 mM NaCl, pH 7.0, while the bacterial assay was conducted in minimal media M9 (Table 1); both of these solutions are sufficiently transparent to allow CD and ultracentrifugation measurements (supplementary material). Under the assay conditions, the peptides gave CD spectra similar to those in Tris buffer, with the exception of H-(β^3-HLeu-β^3-HLys-β^3-HLeu)n-OH, n=5 and 6.
(§8) ∇in M9 medium (data from Hamuro et al., ref. 5) # In M9 medium.+Hemolysis experiments were performed by incubating a 0.25% suspension of human RBc's in 10 mM Tris buffer containing […] at pH 7.0 with varying amounts of peptide. The hemolytic dose required to lyse 50% of the RBC's is reported as the HD50.
(§9) Hemolysis experiments were carried out by incubating 0.25% suspension of human erythrocytes (RBC's) with peptides of different concentrations in 150 mM sodium choloride, 10 mM Tris buffer, pH 7.0. The sample was prepared by combining 400 μL of the RBC suspension and […] of the peptide solution. After incubated the sample at 37— C. for 1 hour, the sample was centrifuged at 14,000 rpm for 5 min, and the OD414 of the supernatant was measured. Mellitin (50 μM) was used to get 100% hemolysis. The hemolytic IC50 was obtained by plotting hemolysis percentage vis. peptide concentration, and the concentration required for 50% hemolysis was determined from the smooth curve-fitted graph.
(§10) The activity and selectivity of peptide 1 and peptide 2 were examined by antibacterial assay and hemolysis experiments. E. Coli and human erythrotytes (RBC) were used as models for bacterial cell and mammalian cell, respectively. The peptide concentration required for 50% bacterial growth suppression (IC50), and peptide concentration required for 50% RBC lysis (HD50) are listed in Table 3. […] The antibacterial activities of peptide 1 and peptide 2 are about the same except peptide 2 has slightly lower IC50. Similar trend has been observed in the previous study, that longer peptide tends to have higher activity. However, the difference in IC50 is much smaller for this series of peptide than the previously studied ones. Antibacterial peptide with good selectivity is usually represented by its low hemolysis ability. […] The HD50 is 670 μM for peptide 1 and 240 μM for peptide 2, which gives a selectivity of 111 for peptide 1 and 60 for peptide 2.

K91 E. coli = type: cell-based; conditions: K91, 9 h, pH 7.4
Protocol: as §7
Antibacterial assay was performed by incubation of K 91 E. coli and peptide of different concentrations in minimal media, at pH 7.4. The peptide solution (50 μL) and K 91 E. coli culture (20 μL, grown in minimal media for 24 hr-36 hr) were mixed with 1 mL minimal media. […] The peptide dose required for 50% suppress of bacterial growth was obtained from the smooth fitted OD600 vs. log[peptide] curve.
as §10

[2] = system: human erythrocytes (RBC's); assay: Hemolysis assay, 50% lysis of RBC's; type: cell-based; conditions: pH 7
Protocol: as §7, §8, §9, §10

[3] = In LB medium (data from Oh et al.); cited from earlier work

Compound | IC50 (K91 E. coli) [µM] | HC50 at 1 h ([1]; human, pH 7) [µM] | MIC* [3] [µM] | other results
Polymyxin [reference compound] |  |  |  | osmY gene fusion response (osmY-lux fusion): yes; micF gene fusion response (micF-lux fusion): yes
CC(C)C[C@@H](CC(=O)O)NC(=O)C[C@H](CCCCN)NC(=O)C[C@@H](NC(=O)C[C@H](CC(C)C)NC(=O)C[C@H](CCCCN)NC(=O)C[C@@H](NC(=O)C[C@H](CC(C)C)NC(=O)C[C@H](CCCCN)NC(=O)C[C@@H](N)C(C)C)C(C)C)C(C)C [H-(β^3-HVal-β^3-HLys-β^3-HLeu)3-OH, H-(b^3-HVal-b^3-HLys-b^3-HLeu)3-OH] | 41 |  |  | HC50 at 1 h ([1]; 0.25% human erythrocytes, 10 mM Tris, 150 mM NaCl, pH 7.0, 1 h at 37° C., read-out: Hemolysis HD50): 86 µM
CC(C)C[C@H](N)CC(=O)N[C@@H](CCCCN)CC(=O)N[C@H](CC(=O)N[C@H](CC(=O)N[C@@H](CCCCN)CC(=O)N[C@H](CC(=O)N[C@H](CC(=O)N[C@@H](CCCCN)CC(=O)N[C@H](CC(=O)N[C@H](CC(=O)N[C@@H](CCCCN)CC(=O)N[C@H](CC(=O)O)CC(C)C)CC(C)C)CC(C)C)CC(C)C)CC(C)C)CC(C)C)CC(C)C [H-(β^3-HLeu-β^3-HLys-β^3-HLeu)4-OH, H-(b^3-HLeu-b^3-HLys-b^3-HLeu)4-OH] | 1.7 | 2.6 |  | HD50+ [2]: 2.6 µM
Cecropin A (KWKLFKKIEKVGQNIRDGIIKAGPAVAVVGQATQIAK; ends and bridges not checked; UniProt P01507 27-63, looked up) [known polycationic natural peptide] |  |  | 0.1 | 
Cecropin B (KWKVFKKIEKMGRNIRNGIVKAGPAIAVLGEAKAL; ends and bridges not checked; UniProt P01508 27-61, looked up) [known polycationic natural peptide] |  |  | 0.1 | 
Polymyxin B |  |  | 0.2 | 
CC(C)C[C@H](N)CC(=O)N[C@@H](CCCCN)CC(=O)N[C@H](CC(=O)N[C@H](CC(=O)N[C@@H](CCCCN)CC(=O)N[C@H](CC(=O)O)CC(C)C)CC(C)C)CC(C)C [H-(β^3-HLeu-β^3-HLys-β^3-HLeu)2-OH, H-(b^3-HLeu-b^3-HLys-b^3-HLeu)2-OH] | > 100 | > 100 |  | 
CC(C)C[C@H](N)CC(=O)N[C@@H](CCCCN)CC(=O)N[C@H](CC(=O)N[C@H](CC(=O)N[C@@H](CCCCN)CC(=O)N[C@H](CC(=O)N[C@H](CC(=O)N[C@@H](CCCCN)CC(=O)N[C@H](CC(=O)N[C@H](CC(=O)N[C@@H](CCCCN)CC(=O)N[C@H](CC(=O)N[C@H](CC(=O)N[C@@H](CCCCN)CC(=O)N[C@H](CC(=O)N[C@H](CC(=O)N[C@@H](CCCCN)CC(=O)N[C@H](CC(=O)O)CC(C)C)CC(C)C)CC(C)C)CC(C)C)CC(C)C)CC(C)C)CC(C)C)CC(C)C)CC(C)C)CC(C)C)CC(C)C [H-(β^3-HLeu-β^3-HLys-β^3-HLeu)6-OH, H-(b^3-HLeu-b^3-HLys-b^3-HLeu)6-OH] |  | 0.081 |  | HD50+ [2]: 0.081
CC(C)C[C@@H](CC(=O)O)NC(=O)C[C@H](CCCCN)NC(=O)C[C@@H](NC(=O)C[C@H](CC(C)C)NC(=O)C[C@H](CCCCN)NC(=O)C[C@@H](NC(=O)C[C@H](CC(C)C)NC(=O)C[C@H](CCCCN)NC(=O)C[C@@H](NC(=O)OCC1c2ccccc2-c2ccccc21)C(C)C)C(C)C)C(C)C [Fmoc-(β^3-HVal-β^3-HLys-β^3-HLeu)3-OH, Fmoc-(b^3-HVal-b^3-HLys-b^3-HLeu)3-OH] | 15 | 6.3 |  | HD50+ [2]: 6.3 µM
CC(C)C[C@@H](CC(=O)O)NC(=O)C[C@H](CCCCN)NC(=O)C[C@@H](NC(=O)C[C@H](CC(C)C)NC(=O)C[C@H](CCCCN)NC(=O)C[C@@H](NC(=O)C[C@H](CC(C)C)NC(=O)C[C@H](CCCCN)NC(=O)C[C@@H](NC(=O)C[C@H](CC(C)C)NC(=O)C[C@H](CCCCN)NC(=O)C[C@@H](NC(=O)OCC1c2ccccc2-c2ccccc21)C(C)C)C(C)C)C(C)C)C(C)C [Fmoc-(β^3-HVal-β^3-HLys-β^3-HLeu)4-OH, Fmoc-(b^3-HVal-b^3-HLys-b^3-HLeu)4-OH] | 1.5 | 0.31 |  | 
Magainin 2 |  |  | 5 | 
CC(C)C[C@@H](CC(=O)O)NC(=O)C[C@H](CCCCN)NC(=O)C[C@@H](NC(=O)C[C@H](CC(C)C)NC(=O)C[C@H](CCCCN)NC(=O)C[C@@H](NC(=O)OCC1c2ccccc2-c2ccccc21)C(C)C)C(C)C [Fmoc-(β^3-HVal-β^3-HLys-β^3-HLeu)2-OH, Fmoc-(b^3-HVal-b^3-HLys-b^3-HLeu)2-OH] | > 100 | > 100 |  | 
Magainin 1 (GIGKFLHSAGKFGKAFVGEIMKS; Magainin-1; UniProt P11006 37-59, looked up) [known polycationic natural peptide (frog skin)] |  |  | 12 | 
CC(C)C[C@@H](CC(=O)O)NC(=O)C[C@H](CCCCN)NC(=O)C[C@@H](NC(=O)C[C@H](CC(C)C)NC(=O)C[C@H](CCCCN)NC(=O)C[C@@H](NC(=O)C[C@H](CC(C)C)NC(=O)C[C@H](CCCCN)NC(=O)C[C@@H](NC(=O)C[C@H](CC(C)C)NC(=O)C[C@H](CCCCN)NC(=O)C[C@@H](N)C(C)C)C(C)C)C(C)C)C(C)C [H-(β^3-HVal-β^3-HLys-β^3-HLeu)4-OH, H-(b^3-HVal-b^3-HLys-b^3-HLeu)4-OH] | 2.1 | 4.2 |  | 
CC(C)C[C@H](N)CC(=O)N[C@@H](CCCCN)CC(=O)N[C@H](CC(=O)N[C@H](CC(=O)N[C@@H](CCCCN)CC(=O)N[C@H](CC(=O)N[C@H](CC(=O)N[C@@H](CCCCN)CC(=O)N[C@H](CC(=O)O)CC(C)C)CC(C)C)CC(C)C)CC(C)C)CC(C)C [H-(β^3-HLeu-β^3-HLys-β^3-HLeu)3-OH, H-(b^3-HLeu-b^3-HLys-b^3-HLeu)3-OH] | 35 | > 100 |  | 
Polymyxin E |  |  | 0.15 | 
CC(C)C[C@@H](CC(=O)O)NC(=O)C[C@H](CCCCN)NC(=O)C[C@@H](NC(=O)C[C@H](CC(C)C)NC(=O)C[C@H](CCCCN)NC(=O)C[C@@H](N)C(C)C)C(C)C [H-(β^3-HVal-β^3-HLys-β^3-HLeu)2-OH, H-(b^3-HVal-b^3-HLys-b^3-HLeu)2-OH] | > 100 | > 100 |  | 
CC(C)C[C@H](N)CC(=O)N[C@@H](CCCCN)CC(=O)N[C@H](CC(=O)N[C@H](CC(=O)N[C@@H](CCCCN)CC(=O)N[C@H](CC(=O)N[C@H](CC(=O)N[C@@H](CCCCN)CC(=O)N[C@H](CC(=O)N[C@H](CC(=O)N[C@@H](CCCCN)CC(=O)N[C@H](CC(=O)N[C@H](CC(=O)N[C@@H](CCCCN)CC(=O)N[C@H](CC(=O)O)CC(C)C)CC(C)C)CC(C)C)CC(C)C)CC(C)C)CC(C)C)CC(C)C)CC(C)C)CC(C)C [H-(β^3-HLeu-β^3-HLys-β^3-HLeu)5-OH, H-(b^3-HLeu-b^3-HLys-b^3-HLeu)5-OH] |  | 0.23 |  | HD50+ [2]: 0.23 µM
